Data on one compound can be found in US20110130355A1, “USE OF SOPHORICOSIDE IN THE MANUFACTURE OF MEDICAMENTS” (priority 2008, published 2011).

Marks after values point to notes of the source that are not given here.

Common to all, as to type: in vivo, SD rats
The subject of one series is ER-α. Put plainly: Immunohistochemical staining of the estrogen receptor of articular chondrocytes, percentage of positive cells. The following applies: OVX rats, 11 weeks; for ER-α positive cells in the articular cartilage, micrograph in words: FIG. 7; for positive ratio for ER-α expression in the articular chondrocytes, Total: whole knee joint. Here is the method: 2) Elimination of endogenous peroxidases: The sections were treated with 3% H2O2-methanol for 10 minutes and washed by PBS for 5 minutes×3;
3) Blocking of Antigen: The sections were treated with 0.3% bovine serum albumin (BSA) for 30 minutes;
The sections were incubated at 4° C. overnight and then washed by PBS for 5 minutes×3;
5) Secondary antibody: After the addition of the biotinylated secondary antibody (1:200) the sections were incubated at 37° C. for 30 minutes and then washed by PBS for 5 minutes×3;
6) Addition of SABC (Streptavidin Biotin Complex): After the addition of SABC (1:300) the sections were incubated at 37° C. for 30 minutes and then washed by PBS for 5 minutes×3;
7) Visualization: 75 μl of 3,3′-diaminobenzidine (DAB) was added per section. After incubation for 3-6 minutes, the sections were observed by microscopy;
The average of the percentages for the four regions was regarded as the total positive cell percentage for the indicated knee joint, and the average of the percentages obtained from two persons was regarded as the final experimental result.
The positive cell percentage=number of the positive chondrocytes in the field/total number of the chondrocytes in the field×100%.

The test system of another series is uterus. Kind of series: Wet weights of uteri of ovariectomized rats. The following applies: OVX rats, 11 weeks. Here is the method:
OVX group and the intervention groups: The rats were anesthetized by intraperitoneal injection of 1% pentobarbital sodium at 5 ml/kg. After the onset of anesthesia, the rats were positioned face-down and dehaired at the third lumbar vertebra below the costal arch. The skin was sanitized by benzalkonium bromide and incised by about 1 cm. The subcutaneous tissue and the fascia were incised, and the muscle was bluntly separated. The peritoneum was carefully cut open. White fat was lifted carefully by using tissue forceps inserted to the abdominal cavity through the incision. The fat was gently turned over to expose the quincuncial ovary, which was then ligated by sterile 1 silk thread. The ovary was separated by cutting the oviduct by ophthalmic scissors. After hemostasis by compression, the fat was returned into the abdominal cavity. Subsequently, an incision was made on the opposite side and the same procedures were carried out to excise the ovary on the opposite side. The peritoneum, the fascia, the subcutaneous tissue, and the skin were sutured one by one. The incisions were sanitized.
The vehicle was 1% sodium carboxymethylcellulose (CMC-Na). The sham group and OVX group were administered the vehicle by gavage.
Intervention groups were administered the following formulations of active agents dissolved in the vehicle: […]
The rats were sacrificed by cervical dislocation after 11 weeks. Uteri were removed, weighted, and fixed in 4% paraformaldehyde (PFA). The whole right knee joints were removed and fixed in 4% PFA.
The rats were weighted, and then sacrificed. The uteri were removed from the rats and determined for wet weights.
Statistical analysis of variance was performed. The variance of the wet weights internal to the SHAM group was high, possibly attributing to different stages of menstrual cycle. In all groups, the body weights before the treatment were not statistically different from those after the treatment. The wet weights of uteri obtained from the ovariectomized groups were statistically different from those obtained from the SHAM group (p<0.01), indicating a successful ovariectomy.

The test system of series [1] is articular cartilage of the knee joint. Put plainly: Articular surface lesions of the knee joint (toluidine blue staining, image analysis). The following applies: OVX rats, 11 weeks; for lesion percentage for the articular surface, total: whole knee joint. Here is the method:
1. The Pathological Sections of the Knee Joints of Rats
1) The knee joints of rats were fixed in 4% PFA for 48 hours;
2) The samples were decalcified in 15% ethylenediamine tetraacetic acid (EDTA) for 15 days;
The coronal sections were sectioned by a paraffin microtome (Leica, Model: RM2235) at thickness of 5 μm with the medial collateral ligament being used as a marker. The sections were transferred into warm water at 30° C., and plated on slides pre-treated with polylysine. The slides were transferred to an incubator at 65° C. for 3 hours and stored at ambient condition until use.
2) Staining: The sections were stained in 1% Ammonia Toluene blue for 5 minutes and rinsed with water for 10 minutes;
The lesion lengths in the four weight-bearing articular cartilage surface lesion regions of medial and lateral femoral condyles and medial and lateral tibial plateaus were measured with Axioplan 2 microscopy imaging analysis system (Axioplan 2 multifunctional automatic fluorescent microscope, KS400 imaging analysis system Ver. 3.0, AxioCam digital camera at a resolution of 3900×3090) by two independent persons skilled in the imaging art (FIGS. 3A and 3B). The results were averaged. The lesion percentage for each of the four articular surfaces was calculated. Finally the total lesion percentage for the knee joint was calculated as:
The lesion percentage for each part of the articular surface=lesion length/total length of the weight-bearing articular surface×100%.
The lesion percentage for articular surface of the knee joint=total lesion length/total length of the articular surface×100%.

Regarding `O=c1c(-c2ccc(O[C@@H]3O[C@H](CO)[C@@H](O)[C@H](O)[C@H]3O)cc2)coc2cc(O)cc(O)c12` [HDA, 3-[4-(β-D-glucopyranosyl)-benzyl]5,7-dihydro-4H-1-benzopyran-4-one (4′,5,7-trihydroxylisoflavone-4′-D-glucoside)], the “ER-α positive cells in the articular cartilage, micrograph in words” value with ER-α (sophoricoside 10 mg/kg/day) is “ER-α positive cells within the superficial layer of articular cartilage were much less”; in the series with ER-α (sophoricoside 20 mg/kg/day) it was “ER-α positive cells within the superficial layer of articular cartilage were much less”; in the series on ER-α (sophoricoside 80 mg/kg/day), “more than the OVX group and similar to normal articular cartilage”. The “positive ratio for ER-α expression in the articular chondrocytes, Total” value with ER-α (sophoricoside 10 mg/kg/day) is recorded as 49.520 ± 1.815^□□ %; with ER-α (sophoricoside 20 mg/kg/day), 58.624 ± 1.707**^□□ %; in the series on ER-α (sophoricoside 40 mg/kg/day), 65.074 ± 1.306**^□□ %; in the series with ER-α (sophoricoside 80 mg/kg/day), 77.730 ± 1.125**^□□ %. Further, the “Wet weight of uterus” value in the series on uterus (sophoricoside 10 mg/kg/day) is recorded as 0.143 ± 0.008 g; in the series on uterus (sophoricoside 20 mg/kg/day), 0.129 ± 0.008 g; in the series with uterus (sophoricoside 40 mg/kg/day), 0.162 ± 0.013 g; in the series on uterus (sophoricoside 80 mg/kg/day), 0.166 ± 0.017 g. Besides, the “articular cartilage degeneration resulted from ovariectomy, in words” value in series [1] (sophoricoside 10 mg/kg/day) is “ameliorated by the interventions other than HDA10 and HDA20”; in series [1] (sophoricoside 20 mg/kg/day), “ameliorated by the interventions other than HDA10 and HDA20”; in series [1] (sophoricoside 40 mg/kg/day) it was “effective but not able to completely reverse the degeneration”; in series [1] (sophoricoside 80 mg/kg/day), “significantly more effective than OVX”. For the same compound, the “lesion percentage for the articular surface, total” value in series [1] (sophoricoside 10 mg/kg/day) is 7.785 ± 0.547^□□ %; in series [1] (sophoricoside 20 mg/kg/day), 6.622 ± 0.366^□□ %; in series [1] (sophoricoside 40 mg/kg/day), 5.617 ± 0.264*^□□ %; in series [1] (sophoricoside 80 mg/kg/day), 4.808 ± 0.603 %.
